Data on one compound can be found in paper PMC12389234, “Bioactive Potential of Nepenthes miranda Flower Extracts: Antidiabetic, Anti-Skin Aging, Cytotoxic, and Dihydroorotase-Inhibitory Activities” (Plants, 2025).

The assay addresses T1, porcine pancreatic elastase (Sus scrofa, UniProt P00772).
T1 construct: gene CELA1; native mature enzyme from porcine pancreas (commercial, Sigma-Aldrich)
Description: spectrophotometric, p-nitroanilide release, […] nm. The assay is classed as biochemical.

Structures are written as SMILES. pIC50: −log10 of the molar value.

T1 sequence (P00772 27-266): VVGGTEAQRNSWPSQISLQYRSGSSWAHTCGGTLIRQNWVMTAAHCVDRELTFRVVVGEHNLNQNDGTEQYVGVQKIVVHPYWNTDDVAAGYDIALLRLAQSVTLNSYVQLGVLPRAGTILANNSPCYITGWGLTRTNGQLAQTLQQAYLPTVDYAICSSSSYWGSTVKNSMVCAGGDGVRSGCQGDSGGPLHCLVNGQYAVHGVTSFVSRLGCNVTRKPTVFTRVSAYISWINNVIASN

For orientation: pIC50 means the IC50 on a negative log10 scale, so that one unit is a factor of ten. A higher pIC50 goes with a low IC50. `O=C(O[C@@H]1Cc2c(O)cc(O)cc2O[C@@H]1c1cc(O)c(O)c(O)c1)c1cc(O)c(O)c(O)c1` [EGCG] gave a negative-log IC50 (pIC50) of 5.03.
